In patent US6943022B2, “Inhibition of apoptosis by the expression of antisense RNA of caspase-3” (Korea Advanced Institute of Science and Technology, priority 2001, dated 2005):

How the values were obtained:
recombinant CHO cells [1] = assay: LDH activity in culture supernatant (degree of cell lysis) after sodium butyrate; format: cell-based; conditions: control cells, first two days after addition of 5 mM sodium butyrate
From the text: The integrity of protein product is influenced by the degree of cell lysis because some proteolytic enzymes and glycosidases released from the cellular membrane ruptured-dead cells influence the molecular integrity of the product (Goldman, et al., 1997, Cytotechnology, 23, 103-111; Hansen, et al., 1997, Cytotechnology, 24, 227-234; Teige, et al., 1994, J. Biotechnol., 34, 101-105). The amount of lysed cells can be determined by measuring the amount of lactate dehydrogenase (LDH) released into the culture supernatant (Cruz, et al., 2000, Biotechnol. Lett., 22, 677-682). Thus, to determine the degree of cell lysis, the LDH activity in culture supernatant was measured daily after treatment with 5 mM of sodium butyrate.

recombinant CHO cells [2] = format: cell-based
Description: The present inventors confirmed whether the expression of antisense RNA of caspase-3 could inhibit the NaBu-induced apoptosis. Particularly, control cells and B3 cells obtained in Example <1-1> were seeded at a concentration of 4×10^4 cells/ml in 6-well culture plates containing 5 ml of an alpha-minimum essential medium supplemented with 5% dialyzed fetal bovine serum and 0.32 μM of methotrexate. After three days of cultivation, the spent medium was replaced with fresh medium containing 0-5 mM of sodium butyrate. Cells were harvested periodically. Viable cells were distinguished from dead cells using the trypan blue dye exclusion method to determine cell viability. In addition, secreted humanized antibody concentration was measured by enzyme-linked immunosorbent assay (ELISA).

SMILES: CCCC(=O)[O-].[Na+] [sodium butyrate]
- LDH activity in culture supernatant (recombinant CHO cells [1]): increased rapidly
- cytotoxic effect on the cell growth (recombinant CHO cells [2]; 0-5 mM sodium butyrate, control and B3 CHO cells): dose-dependent
- cellular apoptosis (recombinant CHO cells [2]; 5 mM sodium butyrate): induced
- viability of control cells (recombinant CHO cells [2]; three days after treatment with 5 mM sodium butyrate, control cells (null pcDNA3.1-zeo(+))): under 50%
